Source: patent US20170246130A1, “4-HYDROXYBENZOHYDARZIDE-A NEW CLASS OF ANGIOGENIC ENZYME THYMIDINE PHOSPHORYLASE INHIBITORS” (priority 2016, published 2017)
“Also recorded” adds a separate entry of the source.

target: T1, thymidine phosphorylase (E. coli) (Escherichia coli, UniProt P07650); experiment: Kinetic (mechanistic) studies on thymidine phosphorylase; assay type: biochemical; details: Lineweaver-Burk plot, thymidine as variable substrate
T1 construct: purchased Sigma Aldrich, USA; host or cells: Escherichia coli
T1 sequence (P07650 whole entry): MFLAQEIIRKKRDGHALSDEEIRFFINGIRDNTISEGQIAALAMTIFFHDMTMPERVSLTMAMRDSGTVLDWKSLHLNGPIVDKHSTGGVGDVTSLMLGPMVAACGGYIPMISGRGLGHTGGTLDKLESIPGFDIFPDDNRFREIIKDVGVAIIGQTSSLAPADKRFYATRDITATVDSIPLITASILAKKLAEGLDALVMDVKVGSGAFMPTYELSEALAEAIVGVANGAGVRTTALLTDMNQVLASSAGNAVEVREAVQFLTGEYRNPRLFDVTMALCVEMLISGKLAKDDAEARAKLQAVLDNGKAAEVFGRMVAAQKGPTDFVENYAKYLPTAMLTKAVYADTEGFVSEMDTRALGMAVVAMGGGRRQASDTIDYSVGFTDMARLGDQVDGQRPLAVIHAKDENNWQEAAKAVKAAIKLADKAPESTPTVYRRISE
Experimental: These studies disclose the mechanism of inhibitor binding to enzyme. Kinetic studies were carried out using thymidine as variable substrate. […] This was deduced from Lineweaver Burk plot. This compound therefore, interacted either with the amino acids of hydrophobic pocket of the enzyme or at allosteric site of the enzyme. […] Uncompetitive inhibitor causes decrease in both Km and Vmax values of the enzyme (Figure-6). […] Ki values were determined by secondary re-plot, and confirmed by Dixon plot.
Kinetic studies were carried out to find the mechanism of inhibitor action. Inhibitor could bind with enzyme in multiple ways such as in competitive, non-competitive, mixed or uncompetitive way. In kinetic assay, the enzyme (0.058 U/200 μL) was incubated with different concentrations of inhibitor for 10 min at 30° C. The reactions was then initiated by adding different concentrations (0.1875 mM-1.5 mM) of substrate (thymidine) and the resulting degradation of thymidine was measured continuously at 290 nm for 10 min on a ELISA plate reader. Every experiment was run in triplicate.
Line-weaver Burk plot was plotted to determine the type of inhibition. This was accomplished by plotting the reciprocal of the rate of reaction against the reciprocal of the substrate concentration. Ki values were determined by secondary re-plot, and reconfirmed by Dixon plot. The Ki was determined by non-linear regression equation.

| SMILES | Inhibition Type |
| --- | --- |
| O=C(N/N=C/c1ccc(Cl)cc1)c1ccc(O)cc1 [Compound 12, 4-Hydroxy-N′-[(E)-(4-chlorophenyl)methylidene]benzohydrazide] | un-competitive; also recorded: Uncompetitive |
| O=C(N/N=C/c1cc(Br)cc(Br)c1O)c1ccc(O)cc1 [Compound 24, 4-Hydroxy-N′-[(E)-(3,5-dibromo-2-hydroxyphenyl)methylidene]benzohydrazide] | Non-Competitive |
| C/C(=N\NC(=O)c1ccc(O)cc1)c1c(O)cccc1O [Compound 27, 4-Hydroxy-N′-[(E)-1-(2,6-dihydroxyphenyl)ethylidene]benzohydrazide] | un-competitive; also recorded: Uncompetitive |
| O=C(N/N=C/c1ccc(Br)cc1)c1ccc(O)cc1 [Compound 14, 4-Hydroxy-N′-[(E)-(4-bromophenyl)methylidene]benzohydrazide] | un-competitive; also recorded: Uncompetitive |
| Oc1nc(O)c2cc[nH]c2n1 [7-Deazaxanthine, 2,4-Dihydroxypyrrolo[2,3-d]pyrimidine, reference compound] | Non-Competitive |
| CC/C(=N\NC(=O)c1ccc(O)cc1)c1cc(O)ccc1O [Compound 30, 4-Hydroxy-N′-[(E)-1-(2,5-dihydroxyphenyl)propylidene]benzohydrazide] | un-competitive; also recorded: Uncompetitive |
| O=C(N/N=C/c1ccc(O)c(O)c1)c1ccc(O)cc1 [Compound 5, 4-Hydroxy-N′-[(E)-(3,4-dihydroxyphenyl)methylidene]benzohydrazide] | un-competitive; also recorded: Uncompetitive |

same assay, conditions: absence and different concentrations of compound

| SMILES | apparent Vmax (Lineweaver-burk plot) | apparent km of the enzyme (Lineweaver-burk plot) |
| --- | --- | --- |
| O=C(N/N=C/c1cc(Br)cc(Br)c1O)c1ccc(O)cc1 [Compound 24, 4-Hydroxy-N′-[(E)-(3,5-dibromo-2-hydroxyphenyl)methylidene]benzohydrazide] | decreased | remains unaffected |
| C/C(=N\NC(=O)c1ccc(O)cc1)c1c(O)cccc1O [Compound 27, 4-Hydroxy-N′-[(E)-1-(2,6-dihydroxyphenyl)ethylidene]benzohydrazide] | decreased | remains unaffected |

same assay, conditions: thymidine as variable substrate; secondary re-plot, confirmed by Dixon plot; read-out: Ki (μM ± S.E.M.), dissociation constant

| SMILES | Ki [µM] |
| --- | --- |
| O=C(N/N=C/c1ccc(Cl)cc1)c1ccc(O)cc1 [Compound 12, 4-Hydroxy-N′-[(E)-(4-chlorophenyl)methylidene]benzohydrazide] | 138 ± 0.009 |
| O=C(N/N=C/c1cc(Br)cc(Br)c1O)c1ccc(O)cc1 [Compound 24, 4-Hydroxy-N′-[(E)-(3,5-dibromo-2-hydroxyphenyl)methylidene]benzohydrazide] | 1.75 ± 0.009 |
| C/C(=N\NC(=O)c1ccc(O)cc1)c1c(O)cccc1O [Compound 27, 4-Hydroxy-N′-[(E)-1-(2,6-dihydroxyphenyl)ethylidene]benzohydrazide] | 168 ± 0.003 |
| O=C(N/N=C/c1ccc(Br)cc1)c1ccc(O)cc1 [Compound 14, 4-Hydroxy-N′-[(E)-(4-bromophenyl)methylidene]benzohydrazide] | 80.5 ± 0.002 |
| CC/C(=N\NC(=O)c1ccc(O)cc1)c1cc(O)ccc1O [Compound 30, 4-Hydroxy-N′-[(E)-1-(2,5-dihydroxyphenyl)propylidene]benzohydrazide] | 159.05 ± 0.002 |
| O=C(N/N=C/c1ccc(O)c(O)c1)c1ccc(O)cc1 [Compound 5, 4-Hydroxy-N′-[(E)-(3,4-dihydroxyphenyl)methylidene]benzohydrazide] | 176.65 ± 0.006 |

tested on: mouse fibroblast cell line (3T3); experiment: MTT anti-proliferative assay, 3T3 cells; assay type: cell-based; details: 48 h, 3T3 cells
Experimental: (§1) Compounds found to be active in inhibiting thymidine phosphorylase were then subjected to MTT proliferation assay. Rapid proliferation is the property inherent to cancerous/tumor cells. This assay was carried out to study the effect of these compounds on proliferation of various cell lines. The cell lines which we targeted were mouse fibroblast cell line (3T3), and prostate cancer line (PC3).
(§2) Anti-proliferative activity of active compounds was evaluated by using the standard MTT (3-[4,5-dimethylthiazole-2-yl]-2,5-diphenyl-tetrazolium bromide) colorimetric assay in 96-well plate (Dimas et al., 1998).
(§3) It is a colorimetric assay that measures the reduction of MTT, by mitochondrial enzyme i.e. succinate dehydrogenase. The MTT enters into the mitochondria of cell, where it is reduced to an insoluble formazan salt (FIG. 8). The extent of MTT reduction was measured at 540 nm. As reduction of MTT can only occur in metabolically active cells, the level of activity is actually a measure of the viability of the cells (Vega-Avila and Pugsley, 2011).
(§4) Mouse fibroblast cell line 3T3 was cultured in DMEM, supplemented with 5% of FBS, 100 IU/mL of penicillin and 100 μg/mL of streptomycin, and kept at 37° C. in 5% CO2 incubator. For the preparation of cell culture, 100 μL/well of cell solution (5×10^4 cells/mL) was added into 96-well plate. The plate was incubated for overnight, and fresh medium was added after the removal of old medium. The test compounds were also added in different concentrations into the plate and plate was again incubated for 48 h. After the completion of this incubation period, 200 μL MTT (0.5 mg/mL) was added and plate was again incubated for 4 h, after this final incubation 100 μL of DMSO was added to each well. The level of MTT reduction to formazan was evaluated by change in absorbance at 540 nm using a micro plate reader (Spectra Max plus, Molecular Devices, CA, USA).

| SMILES | IC50 ± SD (μM), 3T3 Cell Line |
| --- | --- |
| O=C(N/N=C/c1ccc(Cl)cc1)c1ccc(O)cc1 [Compound 12, 4-Hydroxy-N′-[(E)-(4-chlorophenyl)methylidene]benzohydrazide] | Inactive |
| O=C(N/N=C/c1ccc(Br)cc1)c1ccc(O)cc1 [Compound 14, 4-Hydroxy-N′-[(E)-(4-bromophenyl)methylidene]benzohydrazide] | Inactive |

same assay, conditions: in comparison to cyclohexamide

| SMILES | inhibition of the proliferation of 3T3 cells (in words) |
| --- | --- |
| O=C(N/N=C/c1cc(Br)cc(Br)c1O)c1ccc(O)cc1 [Compound 24, 4-Hydroxy-N′-[(E)-(3,5-dibromo-2-hydroxyphenyl)methylidene]benzohydrazide] | significantly inhibit |
| C/C(=N\NC(=O)c1ccc(O)cc1)c1c(O)cccc1O [Compound 27, 4-Hydroxy-N′-[(E)-1-(2,6-dihydroxyphenyl)ethylidene]benzohydrazide] | significantly inhibit |
| CC/C(=N\NC(=O)c1ccc(O)cc1)c1cc(O)ccc1O [Compound 30, 4-Hydroxy-N′-[(E)-1-(2,5-dihydroxyphenyl)propylidene]benzohydrazide] | significantly inhibit |
| O=C(N/N=C/c1ccc(O)c(O)c1)c1ccc(O)cc1 [Compound 5, 4-Hydroxy-N′-[(E)-(3,4-dihydroxyphenyl)methylidene]benzohydrazide] | significantly inhibit |

target: T1, thymidine phosphorylase (E. coli); experiment: In-vitro thymidine phosphorylase inhibition assay (spectrophotometric); assay type: biochemical; details: recombinant E. coli TP, thymidine substrate, pH 7.0, 30° C., 290 nm; read-out: IC50 (μM ± S.E.M.), thymidine phosphorylase inhibition
Experimental: In vitro studies on thymidine phosphorylase were carried out in 96-well microtiter plate using Spectra Max-340 and Spectra Max-384 spectrophotometers (Molecular Devices, CA, USA). Deionized water used for buffer preparation was collected by Simplicity Water Purification System (Milipore).
Since human TP is not commercially available, we used commercially available recombinant E. coli TP (expressed in Escherichia coli) enzyme. Primary sequence of TP is mostly conserved throughout the evolution as mammalian TP share 39% sequence similarity with TP of E. coli. The mammalian enzyme also shared 65-70% similarity with the active site residues of E. coli TP enzyme (Bronckaers et al., 2009). Assay for thymidine phosphorylase inhibition was performed spectrophotometrically, following method of Bera et al. with some modifications (Bera et al., 2013).
The reaction catalyzed by thymidine phosphorylase involves reversible phosphorolysis of thymidine (FIG. 1), to thymine and 2-deoxyribose-1-phosphate (Bronckaers et al., 2009).
Reaction mixture contained 150 μL of potassium phosphate buffer (pH 7.0, 50 mM), 20 µL of enzyme (0.058 U/well) and 10 μL of test compound (0.5 mM in dimethylsulfoxide). The reaction mixture was incubated for 10 min at 30° C.
The enzyme inhibitory activities were calculated using the following formula:
Percent Inhibition=100−(O.D. of test/O.D. of control)×100
Where test is the enzyme activity with sample, and control is the enzyme activity without sample, and O.D. is optical density.
The IC50 of the compounds was calculated using EZ-Fit Enzyme Kinetic Program (Perrella Scientific Inc., Amhrest, U.S.A.).

| SMILES | IC50 [µM] |
| --- | --- |
| O=C(N/N=C/c1ccc(Cl)cc1)c1ccc(O)cc1 [Compound 12, 4-Hydroxy-N′-[(E)-(4-chlorophenyl)methylidene]benzohydrazide] | 159 ± 0.4 |
| O=C(N/N=C/c1cc(Br)cc(Br)c1O)c1ccc(O)cc1 [Compound 24, 4-Hydroxy-N′-[(E)-(3,5-dibromo-2-hydroxyphenyl)methylidene]benzohydrazide] | 6.8 ± 0.7 |
| C/C(=N\NC(=O)c1ccc(O)cc1)c1c(O)cccc1O [Compound 27, 4-Hydroxy-N′-[(E)-1-(2,6-dihydroxyphenyl)ethylidene]benzohydrazide] | 176.9 ± 1.6 |
| O=C(N/N=C/c1ccc(Br)cc1)c1ccc(O)cc1 [Compound 14, 4-Hydroxy-N′-[(E)-(4-bromophenyl)methylidene]benzohydrazide] | 158 ± 1 |
| CC/C(=N\NC(=O)c1ccc(O)cc1)c1cc(O)ccc1O [Compound 30, 4-Hydroxy-N′-[(E)-1-(2,5-dihydroxyphenyl)propylidene]benzohydrazide] | 173 ± 1.4 |
| O=C(N/N=C/c1ccc(O)c(O)c1)c1ccc(O)cc1 [Compound 5, 4-Hydroxy-N′-[(E)-(3,4-dihydroxyphenyl)methylidene]benzohydrazide] | 229.5 ± 0.4 |

tested on: prostate cancer line (PC3); experiment: MTT anti-proliferative assay, PC3 cells; assay type: cell-based; details: Homo sapiens, PC-3, PC3 cells, read-out: IC50 ± SD (μM), PC3 Cell Line
Experimental: as §1, §2, §3, §4

| SMILES | IC50 [µM] |
| --- | --- |
| O=C(N/N=C/c1cc(Br)cc(Br)c1O)c1ccc(O)cc1 [Compound 24, 4-Hydroxy-N′-[(E)-(3,5-dibromo-2-hydroxyphenyl)methylidene]benzohydrazide] | 8.34 ± 0.965 |

same assay, conditions: PC3 cells

| SMILES | IC50 ± SD (μM), PC3 Cell Line |
| --- | --- |
| O=C(N/N=C/c1ccc(Cl)cc1)c1ccc(O)cc1 [Compound 12, 4-Hydroxy-N′-[(E)-(4-chlorophenyl)methylidene]benzohydrazide] | Inactive |
| C/C(=N\NC(=O)c1ccc(O)cc1)c1c(O)cccc1O [Compound 27, 4-Hydroxy-N′-[(E)-1-(2,6-dihydroxyphenyl)ethylidene]benzohydrazide] | Inactive |
| O=C(N/N=C/c1ccc(Br)cc1)c1ccc(O)cc1 [Compound 14, 4-Hydroxy-N′-[(E)-(4-bromophenyl)methylidene]benzohydrazide] | Inactive |
| CC/C(=N\NC(=O)c1ccc(O)cc1)c1cc(O)ccc1O [Compound 30, 4-Hydroxy-N′-[(E)-1-(2,5-dihydroxyphenyl)propylidene]benzohydrazide] | Inactive |
| O=C(N/N=C/c1ccc(O)c(O)c1)c1ccc(O)cc1 [Compound 5, 4-Hydroxy-N′-[(E)-(3,4-dihydroxyphenyl)methylidene]benzohydrazide] | Inactive |

same assay, conditions: in comparison of doxorubucin

| SMILES | inhibition of the proliferation of PC3 cancer cells (in words) |
| --- | --- |
| O=C(N/N=C/c1cc(Br)cc(Br)c1O)c1ccc(O)cc1 [Compound 24, 4-Hydroxy-N′-[(E)-(3,5-dibromo-2-hydroxyphenyl)methylidene]benzohydrazide] | significantly inhibit |
